Data taken from US9018244B2, “Benzopyran compounds, compositions and uses thereof” (Olema Pharmaceuticals, Inc., priority 2011, dated 2015).

Tests used:
[1] = daily oral dose of 40 mg in women; cited from earlier work
[2] = test system: human MCF-7 breast cancer cells; test: E2-stimulated proliferation of MCF-7 breast cancer cells; format: cell-based; conditions: MCF-7 cells, 100 pM E2, 6-8 days
Protocol: FIG. 11. […] A) OP-1074 had similar potency to model anti-estrogens in inhibiting E2-stimulated proliferation of breast cells in vitro. MCF-7 cells were treated with anti-estrogens in hormone-depleted medium for 6-8 days in the presence of 100 pM E2. Proliferation was measured using Cyquant fluorescent DNA-binding dye (Invitrogen, Grand Island, N.Y.). Results were from a single representative experiment and reported as the mean percent induction relative to E2 from triplicate treatments, with error bars representing SEM. […] Results were from a single representative experiment and reported as the mean percent induction relative to E2 from triplicate treatments, with error bars representing SEM. IC50's were calculated using the least squares fit method.
Proliferation in MCF-7 was measured using a fluorescent DNA binding dye 6-8 days after treatment in triplicate with anti-estrogens in the presence of 100 pM E2 and as described in the legend to, and depicted in FIG. 11.

[3] = test system: E2-stimulated estrogen response element (ERE)-regulated reporter gene activity; test: ERE-tk109-Luc reporter gene assay in MCF-7 cells; format: cell-based, human; conditions: 100 pM E2, 18-22 hours
Protocol: FIG. 10. […] A) OP-1074 had similar potency to model anti-estrogens in the ERE reporter gene assay. MCF-7 cells were transiently transfected with ERE-tk109-Luc and treated with anti-estrogens in hormone-depleted medium in the presence of 100 pM E2 for 22 hours. Results were from a single representative experiment and reported as the mean percent induction relative to E2 from triplicate treatments, with error bars representing SEM. […] Results were from a single representative experiment and reported as the mean percent induction relative to E2 from triplicate treatments, with error bars representing SEM. IC50's were calculated using the least squares fit method.
Compounds of invention are tested for their inhibitory activity of estrogen according to the assay methods described in Hodges-Gallagher, L., Valentine, C. V., El Bader, S. and Kushner, P. J. (2007) “Histone Deacetylase Inhibitors Enhance the Efficacy of Hormonal Therapy Agents on Breast Cancer Cells and Blocks Anti-estrogen-Driven Uterine Cell Proliferation” Breast Cancer Res Treat, November; 105(3):297-309. Specifically, an estrogen-responsive reporter gene (ERE-tk109-Luc) was transiently transfected into MCF-7 cells and treated with anti-estrogens in triplicate in the presence of 100 pM 17β-estradiol (E2) for 18-22 hours. Luciferase activity was normalized to activity of E2 alone and IC50's were calculated using the least squares fit method. This method is also described in legend for FIG. 10.

[4] = test system: E2-stimulated AP activity in ECC-1 cells; test: Inhibition of E2-stimulated AP activity in ECC-1 cells (antagonist mode); format: cell-based, human; conditions: in the presence of 500 pM E2
Description: FIG. 2. Alkaline phosphatase (AP) activity in ECC-1 cells correlates with the uterine wet weight of ovariectomized rats, as reported previously in Scafonas, et al. (*; Scafonas et al. “Agonist-like SERM effects on ER alpha-mediated repression of MMPI promoter activity predict in vivo effects on bone and uterus. J Steroid Biochem Mol. Biol. 2008 110(3-5):197-206) and Labrie, et al. (†; Labrie et al. “The combination of a novel selective estrogen receptor modulator with an estrogen protects the mammary gland and uterus in a rodent model: the future of postmenopausal women's health?” Endocrinology. 2003 144(11):4700-6). ECC-1 cells were treated with 500 pM 17β-estradiol (E2) or 1-5 nM anti-estrogens in hormone-depleted medium for 3 days. Note that the racemic mixture of acolbifene, EM-343, was used in the in vitro AP assay. AP activity was measured by incubating a chromogenic AP substrate, p-nitrophenyl phosphate, at 40° C. for 40 minutes followed by measuring the absorbance at 405 nm. Results were from a single representative experiment and reported as the mean percent induction relative to E2 from triplicate treatments, with error bars representing SEM.
FIG. 6. […] A) Comparison of inhibition of E2-stimulated AP activity of various benzopyran compounds (right) compared to published reference compounds (left). ECC-1 cells were treated with 100 nM anti-estrogens in the presence of 500 pM E2 and AP activity was measured as described in FIG. 2. Note that OP-1038 was statistically different from EM-343 and Gauthier compound Ia (p<0.0001 (exact p values stated in graph), calculated using Student's t-test). Results were from a single representative experiment and reported as the mean percent induction relative to E2 from triplicate treatments, with error bars representing SEM. […] IC50's were calculated using the least squares fit method. *Aragon Compound 28 was statistically different from equivalent dose of OP-1038 (p≦0.01, calculated using Student's t-test). […]
Method for performing the alkaline phosphatase (AP) assay. […] Absorbance was read at 405 nm using a plate spectophotometer. […]

[5] = target: T1, estrogen receptor alpha (ERα) (Homo sapiens, UniProt P03372); test: ERα expression by immunoblot after anti-estrogen treatment; format: cell-based; conditions: 100 nM anti-estrogen, 22-24 hours, serum-free medium; MCF-7 breast cells and ECC-1 endometrial cells
T1 construct: endogenous in cells
T1 sequence (P03372 1-595): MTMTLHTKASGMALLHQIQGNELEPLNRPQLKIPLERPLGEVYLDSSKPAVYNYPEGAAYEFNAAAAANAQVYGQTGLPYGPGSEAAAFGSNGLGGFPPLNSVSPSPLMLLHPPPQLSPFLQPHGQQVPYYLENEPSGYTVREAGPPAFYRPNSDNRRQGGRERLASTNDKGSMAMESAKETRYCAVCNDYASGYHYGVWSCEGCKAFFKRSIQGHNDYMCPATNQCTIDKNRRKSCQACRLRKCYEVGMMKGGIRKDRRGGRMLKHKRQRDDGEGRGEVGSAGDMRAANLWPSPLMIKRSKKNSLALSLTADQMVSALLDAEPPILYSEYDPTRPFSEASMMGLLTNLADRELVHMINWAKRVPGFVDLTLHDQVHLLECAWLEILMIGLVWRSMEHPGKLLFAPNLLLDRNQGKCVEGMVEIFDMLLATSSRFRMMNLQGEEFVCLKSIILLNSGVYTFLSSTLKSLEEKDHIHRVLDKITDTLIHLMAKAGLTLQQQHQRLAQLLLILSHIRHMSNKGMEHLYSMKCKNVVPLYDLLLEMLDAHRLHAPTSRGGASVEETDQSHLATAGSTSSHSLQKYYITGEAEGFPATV
Protocol: FIG. 12. […] A) ERα levels in breast cells after treatment with OP-1074 compared to treatment with model anti-estrogens. MCF-7 cells were treated with 100 nM anti-estrogen for 24 hours in serum-free medium and protein extracts immunoblotted with an antibody to ERα (D12, Santa Cruz Biotechnology, Santa Cruz, Calif.). Image is from a single representative experiment and number on top denotes the mean percent ERα expression relative to vehicle from quadruplicate treatments. B) OP-1038 induces degradation of ERα in both MCF-7 breast cells and ECC-1 endometrial cells.
ERα expression was detected in MCF-7 cell lysates treated with 100 nM anti-estrogens in serum-free medium for 22-24 hours and immunoblotted with an antibody specific to ERα as described in the legend to, and depicted in FIG. 12.

[6] = test system: rodent uterus, human uterine cells; conditions: cited from earlier work

With `CC1=C(c2ccc(OC(=O)C(C)(C)C)cc2)[C@H](c2ccc(OCCN3CCCCC3)cc2)Oc2cc(OC(=O)C(C)(C)C)ccc21` [EM800] as the compound, how does the “Mean drug exposure of circulating acolbifene” value [1] read?
Its value is 15 ng/mL.

Which “Mean drug exposure of circulating acolbifene” value [1] does the source give for `CC1=C(c2ccc(O)cc2)[C@H](c2ccc(OCCN3CCCCC3)cc2)Oc2cc(O)ccc21` [EM-652, (S)-3-(4-hydroxyphenyl)-4-methyl-2-(4-(2-(piperidin-1-yl)ethoxy)phenyl)-2H-chromen-7-ol] here?
Its value is 8.3 ng/mL.

With `CC1=C(c2ccc(O)cc2)[C@@H](c2ccc(OCCN3CC[C@@H](C)C3)cc2)Oc2cc(O)ccc21` [OP-1075, (2R)-3-(4-hydroxyphenyl)-4-methyl-2-(4-{2-[(3R)-3-methylpyrrolidin-1-yl]ethoxy}phenyl)-2H-chromen-7-ol] as the compound, how does the “Antagonism of E2-stimulated proliferation” value [2] read?
The value was “reduced activity”.

What about the “Antagonism of E2-stimulated ERE-regulated reporter gene activity” value [3] of the same compound?
The value was “reduced activity”.

What about the “Inhibition of E2-stimulated AP activity” value [4] of the same compound?
Its value is “reduced activity”.

What about the “Degradation of ERα” value [5] of the same compound?
The value was “degrade the receptor”.

For `CC12CCC3c4ccc(O)cc4CC(CCCCCCCCC[S+]([O-])CCCC(F)(F)C(F)(F)F)C3C1CCC2O` (stereo not shown) [fulvestrant], which “Residual estrogen-like action relative to estradiol” value [6] is on record?
The value was “almost unmeasurable”.
